Experimental data published in PubChem BioAssay AID2060907 (Molecular Pharmacology Branch, DTP, NCI, 2025).
Several values for one entry are separate records, joined by “and”; a condition that tells them apart may be missing. Equal values may be shown once.

Test system: 388556-164-R-J1-PDC complex spheroid viability
Experiment: Anticancer human tumor 388556-164-R-J1-PDC patient-derived colon adenocarcinoma cell line growth inhibition [RAS]
Settings: for viability, T/C: stronger effect = lower value
Excerpt: RAS pathway inhibitors in Combinations in Complex Spheroids
A high-throughput screen of multi-cell type tumor spheroids was designed to identify active combinations of RAS pathway inhibitors and targeted small molecules. Complex spheroids include a stromal component modeled by human endothelial cells (HUVEC) and fibroblasts modeled by human mesenchymal stem cells (MSCs). The concentration ranges selected for each drug and investigational agent were based upon clinically achievable concentrations if the clinical Cmax of the agent was known.
Compounds. The drugs and investigational agents: abemaciclib (NSC768073), cobimetinib (NSC768068), divarasib (GDC6063, NSC841802), docetaxel (NSC628503), GDC-1971 (RLY-1971, NSC841576), gemcitabine (NSC613327), inavolisib (NSC800729), ipatasertib (NSC767898), KB-0742 (NSC834161), MRTX-1133 (NSC836407), osimertinib (NSC779217), RMC-4630 (NSC839698), RMC-6236 (NSC851965), RMC-6291 (NSC852671), Ro-3306 (NSC812927), sapanisertib (NSC764658), SN-38 (NSC673596), staurosporine (NSC755774), SY5609 (NSC837396), and tovorafenib (DAY101, NSC766906), were obtained from the National Cancer Institute (NCI) Developmental Therapeutics Program Chemical Repository. The FDA-approved anticancer drug set is available from the NCI Developmental Therapeutics Program. […] The stock solutions were prepared in dimethyl sulfoxide (DMSO, Sigma-Aldrich, St. Louis, MO, cat. D2650) at 800-fold the tested concentration and stored at -70 degrees C prior to their use. All drugs and investigational agents were tested over a range starting from a high concentration at or near the clinical Cmax and decreasing in half-log increments. If the clinical Cmax for an agent had not been determined, the highest concentration tested was 10 microM.
Cell Culture. All cells were maintained in an incubator at 37 degrees C and 5% CO2 with 95% humidity. The PDC lines were cultured according to standard operating procedures established by the NCI PDMR. All PDCs were thawed and cultured in Matrigel-coated flasks prepared with a working solution of 1X Ham's F-12 nutrient mix, without supplementation (Invitrogen, Waltham, MA, cat. 11765054), 100 U/mL penicillin-streptomycin (Invitrogen, cat. 15140122), and 2.5% Matrigel (Corning Inc., Corning, NY, cat. 354248) for the first three passages. The 362531-283-R-J2-PDC and 782815-120-R-J1-PDC lines were cultured in 6C/Colon 1B media, which includes advanced DMEM/F-12 (Thermo Fisher Scientific, cat. 12634028), 10 mM HEPES (Thermo Fisher Scientific, cat. 15630080), 1X GlutaMAX supplement (Thermo Fisher Scientific, cat. 35050061), 0.1 mg/mL primocin (InvivoGen, San Diego, CA, cat. ant-pm-2), 10% defined fetal bovine serum, heat inactivated (HyClone Laboratories Inc., Logan, UT, cat. SH30070.03HI), 50% L-WRN conditioned media (ATCC, cat. CRL-3276), 1.25 mM N-Acetyl-L-cysteine (Sigma-Aldrich, cat. A9165), 10 mM nicotinamide (Sigma-Aldrich, cat. N0636), 1X B-27 supplement (Thermo Fisher Scientific, cat. 17504044), 1X N-2 supplement (Thermo Fisher Scientific, cat. 17502048), 50 ng/mL human EGF (Thermo Fisher Scientific, cat. PHG0311), and 10 microM Y-27632 dihydrochloride (Tocris Bioscience, cat. 1254). The K12877-001-R-J1-PDC line was cultured in 6I media, which includes all 6C/Colon 1B media plus 10 ng/mL human FGF-10 (PeproTech, cat. 100-26), 1 ng/mL human FGF-2 (PeproTech, cat. 100-18B), 1 µM prostaglandin E2 (Tocris Bioscience, cat. 2296), […] hydrocortisone (Sigma-Aldrich, cat. H4001), and […] bovine insulin (Sigma-Aldrich, cat. I6634). The K86415-001-R-J1-PDC line was cultured in 6D media, which includes all 6C/Colon 1B media components minus the L-WRN conditioned media. The 485176-168-R4-J1-PDC was cultured in PANC media, which includes all 6C/Colon 1B media plus 100 ng/mL human FGF-10 (PeproTech, cat. 100-26), 500 nM SB-431542 (Selleckchem, cat. S1067), and 10 nM gastrin (Tocris Bioscience, cat. 3006). […]
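Further: spheroids exposed to compound for 7 days before readout.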
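Wherever viability, T/C is given: 100% = DMSO vehicle control luminescence.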

C#Cc1c(F)ccc2cc(O)cc(-c3ncc4c(N5CC6CCC(C5)N6)nc(OCC56CCCN5CC(F)C6)nc4c3F)c12 (stereo not given)
viability, T/C (compound 0.0316 µM): 84.2% [middle of 8 runs]
viability, T/C (compound 0.1 µM): 75.7% [middle of 8 runs]
viability, T/C (compound 0.316 µM): 95.4% [middle of 8 runs]
viability, T/C (compound 1 µM): 93.8% [middle of 8 runs]
viability, T/C (compound 3.16 µM): 87.3% [middle of 7 runs]
viability, T/C (compound 10 µM): 70.4% [middle of 8 runs]
IC50 (compound alone, run of 09/09/2024): > 10 µM

CC(=O)OC12COC1CC(O)C1(C)C(=O)C(O)C3=C(C)C(OC(=O)C(O)C(NC(=O)OC(C)(C)C)c4ccccc4)CC(O)(C(OC(=O)c4ccccc4)C21)C3(C)C (stereo not given)
viability, T/C (compound 0.0316 µM): 89.3% [middle of 4 runs]
viability, T/C (compound 0.1 µM): 74.3% [middle of 4 runs]
viability, T/C (compound 0.316 µM): 75% [middle of 4 runs]
viability, T/C (compound 1 µM): 78.8% [middle of 4 runs]
viability, T/C (compound 3.16 µM): 78.5% [middle of 4 runs]
viability, T/C (compound 10 µM): 75.2% [middle of 4 runs]
IC50 (curve of compound): > 10 µM

CC(C)NCC(C(=O)N1CCN(c2ncnc3c2C(C)CC3O)CC1)c1ccc(Cl)cc1 (stereo not given)
viability, T/C (compound 0.1 µM): 108% [middle of 4 runs]
viability, T/C (compound 0.316 µM): 119% and 102% (3×)
viability, T/C (compound 1 µM): 100% [middle of 4 runs]
viability, T/C (compound 3.16 µM): 100% [middle of 4 runs]
viability, T/C (compound 10 µM): 103% [middle of 4 runs]
IC50 (curve of compound): > 10 µM

CC(Nc1ccc2c(c1)OCCn1cc(N3C(=O)OCC3C(F)F)nc1-2)C(N)=O (stereo not given)
viability, T/C (compound 0.1 µM): 87.7% [middle of 4 runs]
viability, T/C (compound 0.316 µM): 88.6% [middle of 4 runs]
viability, T/C (compound 1 µM): 80.3% [middle of 4 runs]
viability, T/C (compound 3.16 µM): 74.9% [middle of 4 runs]
viability, T/C (compound 10 µM): 67.4% [middle of 4 runs]
IC50 (curve of compound): > 10 µM

CC1(O)CCCC1n1c(=O)c(C(F)F)cc2cnc(NC3CCN(S(C)(=O)=O)CC3)nc21 (stereo not given)
viability, T/C (compound 0.0316 µM): 92.6% and 106% and 83.1%
viability, T/C (compound 0.1 µM): 100% and 93% and 103%
viability, T/C (compound 0.316 µM): 107% and 99.9% and 99.4%
viability, T/C (compound 1 µM): 102% and 97.4% and 98%
viability, T/C (compound 3.16 µM): 111% and 105% (2×)
viability, T/C (compound 10 µM): 75.2% and 57.1% and 77.8%
IC50 (curve of compound): > 10 µM

CCC(CC)c1cc(NC2CCC(N)C2)n2nccc2n1 (stereo not given)
viability, T/C (compound 0.0316 µM): 100% [middle of 4 runs]
viability, T/C (compound 0.1 µM): 96.7% [middle of 4 runs]
viability, T/C (compound 0.316 µM): 106% (2×) and 109% and 107%
viability, T/C (compound 1 µM): 108% [middle of 4 runs]
viability, T/C (compound 10 µM): 32% [middle of 4 runs]
IC50 (curve of compound): 2.97 µM [middle of 4 runs]

C[C@@H](NC(=O)c1ncnc(N)c1Cl)c1ncc(C(=O)Nc2cc(C(F)(F)F)c(Cl)cn2)s1
viability, T/C (compound 0.0316 µM): 106% [middle of 4 runs]
viability, T/C (compound 0.1 µM): 112% [middle of 4 runs]
viability, T/C (compound 0.316 µM): 121% [middle of 4 runs]
viability, T/C (compound 1 µM): 118% and 115% (2×) and 132%
viability, T/C (compound 3.16 µM): 116% [middle of 4 runs]
viability, T/C (compound 10 µM): 97.4% [middle of 4 runs]
IC50 (curve of compound): > 10 µM

Cc1nc(N2CCC3(CC2)COC(C)C3N)c(CO)nc1Sc1ccnc(N)c1Cl (stereo not given)
viability, T/C (compound 0.1 µM): 81.2% [middle of 4 runs]
viability, T/C (compound 0.316 µM): 70.5% [middle of 4 runs]
viability, T/C (compound 1 µM): 62.4% [middle of 4 runs]
viability, T/C (compound 3.16 µM): 53.9% [middle of 4 runs]
viability, T/C (compound 10 µM): 46.1% [middle of 4 runs]

NC1c2ccccc2OC12CCN(c1cnc3c(N4CCCc5ncccc54)n[nH]c3n1)CC2 (stereo not given)
viability, T/C (compound 0.0316 µM): 70% [middle of 4 runs]
viability, T/C (compound 0.1 µM): 59.9% [middle of 4 runs]
viability, T/C (compound 0.316 µM): 48.8% [middle of 4 runs]
viability, T/C (compound 1 µM): 41.2% [middle of 4 runs]
viability, T/C (compound 3.16 µM): 43.6% [middle of 4 runs]
viability, T/C (compound 10 µM): 37.6% [middle of 4 runs]
IC50 (curve of compound): 242 nM [middle of 4 runs]

C=CC(=O)Nc1cc(Nc2nccc(-c3cn(C)c4ccccc34)n2)c(OC)cc1N(C)CCN(C)C + C#Cc1c(F)ccc2cc(O)cc(-c3ncc4c(N5CC6CCC(C5)N6)nc(OCC56CCCN5CC(F)C6)nc4c3F)c12
IC50 (curve of first compound, second compound 0.0316 µM): > 1 µM
IC50 (curve of first compound, second compound 0.1 µM): > 1 µM
IC50 (curve of first compound, second compound 0.316 µM): 0.765 µM
IC50 (curve of first compound, second compound 1 µM): 0.401 µM
IC50 (curve of first compound, second compound 3.16 µM): 0.287 µM
IC50 (curve of first compound, second compound 10 µM): 0.125 µM
viability, T/C (second compound 0.0316 µM, first compound 0.00316 µM): 114%
viability, T/C (second compound 0.0316 µM, first compound 0.01 µM): 98.3%
viability, T/C (second compound 0.0316 µM, first compound 0.0316 µM): 111%
viability, T/C (second compound 0.0316 µM, first compound 0.1 µM): 92.2%
viability, T/C (second compound 0.0316 µM, first compound 0.316 µM): 78.9%
viability, T/C (second compound 0.0316 µM, first compound 1 µM): 57.1%
viability, T/C (second compound 0.1 µM, first compound 0.00316 µM): 110%
viability, T/C (second compound 0.1 µM, first compound 0.01 µM): 98%
viability, T/C (second compound 0.1 µM, first compound 0.0316 µM): 105%
viability, T/C (second compound 0.1 µM, first compound 0.1 µM): 94.5%
viability, T/C (second compound 0.1 µM, first compound 0.316 µM): 74.5%
viability, T/C (second compound 0.1 µM, first compound 1 µM): 57.8%
viability, T/C (second compound 0.316 µM, first compound 0.00316 µM): 98.4%
viability, T/C (second compound 0.316 µM, first compound 0.01 µM): 103%
viability, T/C (second compound 0.316 µM, first compound 0.0316 µM): 80.7%
viability, T/C (second compound 0.316 µM, first compound 0.1 µM): 92%
viability, T/C (second compound 0.316 µM, first compound 0.316 µM): 72.8%
viability, T/C (second compound 0.316 µM, first compound 1 µM): 42.5%
viability, T/C (second compound 1 µM, first compound 0.00316 µM): 91.2%
viability, T/C (second compound 1 µM, first compound 0.01 µM): 99.6%
viability, T/C (second compound 1 µM, first compound 0.0316 µM): 60.5%
viability, T/C (second compound 1 µM, first compound 0.1 µM): 73.7%
viability, T/C (second compound 1 µM, first compound 0.316 µM): 61.1%
viability, T/C (second compound 1 µM, first compound 1 µM): 29.8%
viability, T/C (second compound 3.16 µM, first compound 0.00316 µM): 90.2%
viability, T/C (second compound 3.16 µM, first compound 0.01 µM): 70.8%
viability, T/C (second compound 3.16 µM, first compound 0.0316 µM): 87.3%
viability, T/C (second compound 3.16 µM, first compound 0.1 µM): 69%
viability, T/C (second compound 3.16 µM, first compound 0.316 µM): 48.5%
viability, T/C (second compound 3.16 µM, first compound 1 µM): 19.8%
viability, T/C (second compound 10 µM, first compound 0.00316 µM): 67.4%
viability, T/C (second compound 10 µM, first compound 0.01 µM): 81.5%
viability, T/C (second compound 10 µM, first compound 0.0316 µM): 64.1%
viability, T/C (second compound 10 µM, first compound 0.1 µM): 56.2%
viability, T/C (second compound 10 µM, first compound 0.316 µM): 30.8%
viability, T/C (second compound 10 µM, first compound 1 µM): 24.6%
